# Columns and labels:
# [1] = system: KB cells (human nasopharyngeal cancer cells); assay: in vitro Antitumor test on KB cells (MTT); assay type: cell-based; conditions: 72 h, 3 days incubation
# Procedure: in vitro Antitumor test on KB cells (human nasopharyngeal cancer cells)
# KB cells suspended in an RPMI1640 medium (mfd. by Nissui Seiyaku K. K.), which contained 10% of fetal calf serum, 100 U/mi of penicillin, 100 μg/ml of streptomycin, 5×10^-5 M of mercaptoethanol and 1 mM of sodium pyruvate, were inoculated in 1.25×10^3 portions (0.1 ml) into wells of a 96-well flat-bottomed microplate and then incubated in an incubator containing 5% of carbon dioxide at 37° C. for a day.
# A compound of the present invention was dissolved in dimethyl sulfoxide in a concentration of 20 mg/ml and diluted with a 10% fetal calf serum-RPMI1640 culture medium to a concentration of 100 μg/ml. By using this concentration as the highest level, threefold serial dilution was performed with a 10% fetal calf serum-RPMI1640 culture medium. Then it was added in 0.1 ml portions into the wells of the above-mentioned plate wherein the KB cells had been incubated followed by incubation in the incubator containing 5% of carbon dioxide at 37° C. for 3 days.
# After incubating, an MTT (3-(4,5-dimethylthiazol-2-yl)-2,5-diphenyltetrazolium bromide) solution (3.3 mg/ml) was added in 0.05 ml portions into the wells and the incubation was effected for additional 1 hour. After sucking off the supernatant from each well, the formazane thus formed was dissolved in 0.1 ml of dimethyl sulfoxide. Then the absorbance at 540 nm was measured with a microplate reader and employed as an indication of the vital cell count. In accordance with the following equation, the inhibitory ratio was calculated and the 50% inhibitory concentration (IC50) of the test compound was determined. [formula] T: absorbance of a well containing the test commpound. C: absorbance of a well containing no test compound.
# [2] = system: M5076 (mouse reticulum cell sarcoma); assay: in vivo antitumor test on M5076 transplanted in BDF1 mice; conditions: 25 mg/kg/day, intraperitoneal, 4 times every other day from 10th day
# From the text: in vivo antitumor test on M5076 (mouse reticulum cell sarcoma)
# 1×10^6 M5076 cells were subcutaneously transplanted into the lateral parts of BDF1 mice (aged 6 to 9 weeks, female). A compound of the present invention was suspended in physiological saline containing 3.5% of dimethyl sulfoxide and 6.5% of Tween 80 and a given amount of the obtained suspension was intraperitoneally administered to the animals 4 times from the 10th day after the transplantation once a day every other day. The control group comprised 10 to 12 animals, while the test group comprised 5 or 6 animals.
# On the 21st day after the transplantation, tumors were taken out and weighed. Then the tumor multiplication inhibitory ratio of each test group based on the control group was determined in accordance with the following equation. [formula] T: average tumor weight of the test group. C: average tumor weight of the control group.
structure (smiles),measurement,setting,value
"COc1ccc(S(=O)(=O)Nc2cccc3c2Nc2ccc(F)cc2CN3)cc1 [Example 32, N-(10,11-Dihydro-2-fluoro-5dibenzo(b,e) (1,4)-diazepin-6-yl)-4-methoxybenzenesulfonamide]",IC50,[1],0.082 µg/mL
same,"Inhibitory ratio (tumor weight, 21st day)",[2],84%
same,Survival ratio on 21st day,[2],100%

# — patent US5834462A, “Tricyclic heterocyclic sulfonamide and sulfonic ester derivatives” (Eisai Co., Ltd., priority 1993, dated 1998)
